Marks after values point to notes of the source that are not given here.
Tests used:
Assay type in all cases: in vivo
[1] = test system: Puccinia recondite f. sp. tritici (the causal agent of wheat leaf rust); assay: Test A: wheat leaf rust, preventive spray on wheat seedlings, visual disease rating; conditions: wheat leaf rust, preventive spray on wheat seedlings
Procedure, shortened: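 Wheat seedlings were sprayed to run-off with compound suspended in acetone/water containing 250 ppm Trem 014 (200 ppm ≈ 800 g/ha; some at 40 ppm). Puccinia recondite spores were inoculated the next day. Plants were held 24 h saturated at 20° C, then 7 days at 20° C, and disease control was rated visually on a 0–100 scale against controls.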

[2] = test system: Septoria tritici (the causal agent of wheat leaf blotch); assay: Test B: wheat leaf blotch, preventive spray on wheat seedlings, visual disease rating; conditions: wheat leaf blotch, preventive spray on wheat seedlings
Procedure, shortened: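 Wheat seedlings sprayed to run-off with compound suspension (acetone/water with 250 ppm Trem 014; 200 ppm ≈ 800 g/ha, some at 40 ppm), inoculated next day with Septoria tritici spores. 48 h saturated humidity at 24 °C, then 19 days at 20 °C; visual rating, 100 = full control.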

[3] = test system: Blumeria graminis f. sp. tritici (also known as Erysiphe graminis f. sp. tritici, the causal agent of wheat powdery mildew); assay: Test D: wheat powdery mildew, preventive spray on wheat seedlings, visual disease rating; conditions: wheat powdery mildew, preventive spray on wheat seedlings
Procedure, shortened: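 Compound suspended in acetone/water (50/50) with 250 ppm Trem 014 and sprayed to run-off on wheat seedlings (200 ppm ≈ 800 g/ha), then inoculated next day with spore dust. Disease rated visually after 8 days at 20 °C as % control relative to untreated plants (0-100).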

[4] = test system: Botrytis cinerea (the causal agent of tomato Botrytis); assay: Test C: tomato Botrytis, preventive spray on tomato seedlings, visual disease rating; conditions: tomato Botrytis, preventive spray on tomato seedlings
Procedure, shortened: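 Test suspension (acetone/water with 250 ppm Trem 014; 200 ppm equivalent to 800 g/ha) sprayed to run-off on tomato seedlings; B. cinerea spores inoculated next day. After 48 h saturated humidity at 20° C then 3 days at 24° C, disease rated visually as % control relative to untreated controls (0–100).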

[5] = asterisk: 40 ppm test suspension
[6] = no asterisk (standard test suspension concentration, not 40 ppm)

Structure (SMILES) | Test A rating (100 = 100% disease control, 0 = no disease control relative to the controls) [1, 5] | Test B rating (100 = 100% disease control, 0 = no disease control relative to the controls) [2, 5] | Test D rating (100 = 100% disease control, 0 = no disease control relative to the controls) [3, 5] | Test C rating (100 = 100% disease control, 0 = no disease control relative to the controls) [4, 5] | Test A rating (100 = 100% disease control, 0 = no disease control relative to the controls) [1, 6] [%] | Test B rating (100 = 100% disease control, 0 = no disease control relative to the controls) [2, 6] [%] | Test D rating (100 = 100% disease control, 0 = no disease control relative to the controls) [3, 6] [%] | Test C rating (100 = 100% disease control, 0 = no disease control relative to the controls) [4, 6] [%]
Cc1ncc(C(O)c2ccc(F)cc2F)n1-c1c(F)cc(Cl)cc1F (stereo not drawn) [compound 122] | 98* % | 100* % | 0* % | 0* % | – | – | – | –
OC(c1ccc(F)cc1F)c1c(Br)nc(Br)n1-c1c(F)cc(Cl)cc1F (stereo not drawn) [compound 123] | 98* % | 100* % | 0* % | 95* % | – | – | – | –
OC(c1ccc(F)cc1F)c1c(Br)nc(Cl)n1-c1c(F)cc(Cl)cc1F (stereo not drawn) [compound 124] | 100* % | 100* % | 0* % | 100* % | – | – | – | –
OC(c1ccc(F)cc1F)c1c(Cl)nc(Br)n1-c1c(F)cc(Cl)cc1F (stereo not drawn) [compound 125] | 100* % | 100* % | 79* % | 100* % | – | – | – | –
Cc1nc(Br)c(C(O)c2ccc(F)cc2F)n1-c1c(F)cc(Cl)cc1F (stereo not drawn) [compound 126] | 96* % | 100* % | 0* % | 0* % | – | – | – | –
Cc1nc(Cl)c(C(O)c2ccc(F)cc2F)n1-c1c(F)cc(Cl)cc1F (stereo not drawn) [compound 127] | 100* % | 100* % | 0* % | 73* % | – | – | – | –
Cc1nc(Cl)c(C(O)c2c(F)cc(F)cc2F)n1-c1ccc(F)cc1Cl (stereo not drawn) [compound 128] | – | – | – | – | 100 | 100 | 0 | 99
Cc1nc(Cl)c(C(O)c2ccc(F)cc2Cl)n1-c1ccc(F)cc1Cl (stereo not drawn) [compound 129] | – | – | – | – | 100 | 100 | 0 | 98
Cc1nc(Cl)c(C(O)c2ccc(F)cc2Cl)n1-c1ccc(F)cc1Br (stereo not drawn) [compound 130] | – | – | – | 87* % | 99 | 100 | 0 | –
Cc1nc(Cl)c(C(O)c2ccc(F)cc2F)n1-c1c(F)cccc1F (stereo not drawn) [compound 131] | 100* % | 100* % | 99* % | 99* % | – | – | – | –
Cc1ncc(C(O)c2ccc(F)cc2)n1-c1c(F)cccc1F (stereo not drawn) [compound 132] | – | – | – | – | 99 | 100 | 0 | 41
Cc1nc(Br)c(C(O)c2ccc(F)cc2)n1-c1c(F)cccc1F (stereo not drawn) [compound 133] | 100* % | 100* % | 64* % | 100* % | – | – | – | –

Reference: US20130143929A1, “FUNGICIDAL IMIDAZOLES” (EI DU PONT DE NEMOURS AND COMPANY, priority 2010, published 2013)
